Tested on: bovine cartilage explants
Assay: In vitro joint disease model (IL-1), explanted bovine cartilage: sGAG loss
Type: cell-based
Conditions: for cartilage matrix loss (% sGAG loss): 13.3 nM supplied in every medium change, IL-1, relative to Disease control; for cartilage matrix loss (% sGAG loss), 4 days versus 12 days of treatment: protein in medium day 0-4 only versus 12 days, IL-1, FIG. 7
Source text: Bovine cartilage explants (3 mm diameter, 1.2 mm thick) are harvested from the femoral patellar groove of 2-4 week old bovine calves. Knee joints are mounted by removing all tissue surrounding the femur, removing the femoral head with a bone saw or hack saw, and clamping in a tissue vice. Joints are aseptically opened, removing the patella, tibia and fibula. Using a 3 mm diameter disposable biopsy punch, approximately 80×3 mm diameter full thickness cartilage cores are punched from the femoral-patellar groove. A sterile knife is used to slice the cores at the cartilage-bone interface. Cores are then inserted into 3 mm diameter holes in a 1.2 mm thick sterile stainless steel plate and sliced flush with the plate using sterile razor blades to remove the excess core length, resulting in 3 mm diameter, 1.2 mm thick cartilage explants with the superficial zone cartilage intact.
Explants are cultured in 96-well plates in 300 μL of medium consisting of low glucose DMEM (1× Gibco 11885-084), Penicillin-Streptomycin (1×, Gibco 15140-122), ascorbic acid (20 μg/mL, Sigma A4403), proline (400 μM, Sigma P5607-256), non-essential amino acids (1×, Sigma M7145), and HEPES (100 mM, Gibco 15630-080). Explants from three animals (n=2-3 per animal) are used in each treatment condition for a total explant number of 8-9 per condition. Medium is changed every 2 days. On days 6 and 10, the medium is supplemented with 5 μCi/mL of ^35S-sodium sulfate (Perkin Elmer NEX041H001MC, 1 mCi).
Timepoints are taken at day 8 and 12: explant tissue is washed four times for 30 min each (2 hr total) in 1 mM unlabeled sodium sulfate in PBS. Each explant is weighed wet and frozen at −20° C. until digestion. Tissue digestion was performed with Proteinase K (Roche cat #3115879001) and each explant is digested in 1 mL 100 μg/mL Proteinase K in 50 mM Tris-HCL, 1 mM Calcium Chloride pH=8.0 buffer at 60° C. overnight. Measurement of sGAG content and DNA content is performed using standard assay methods such as those described in Hoemann, 2004, Methods in Molecular Medicine: Cartilage and Osteoarthritis. Totowa, N.J.: Humana Press Inc.; p. 127-52. ^35S-sulfate content of the digested cartilage explants was quantified by mixing 20 μL of digest with 250 μL of scintillation fluid (Perkin Elmer cat #1200-439) and counting with a WALLAC 1450 MICROBETA TRILUX scintillation counter.
Treatments were given at the following concentrations: wtIGF-1 13.3 nM=100 ng/mL (IGF-1 R&D systems 291-G1); GF-Fus1 (6x-Histidine tagged) 13.3 nM=135 ng/mL; GF-Fus2 (6x-Histidine tagged) 13.3 nM=140 ng/mL; and GF-Fus3 (6x-Histidine tagged)13.3 nM=181 ng/mL. All treatments included IL-1 and were given for either 4 days or the entire culture duration. The outcomes measured were ^35S-sulfate incorporation, DNA content, and sGAG content of plug at endpoint, and sGAG released to media for all media changes. Controls were either no treatment (Healthy) or IL-1 alone at 1 ng/mL (Disease).
FIG. 4 depicts a graph of cartilage matrix loss as measured by the cumulative percentage of total sGAG lost to the culture medium against time (days). Percentage loss is calculated by dividing the cumulative sGAG in the culture medium by the total sGAG present in the medium over the culture period plus the sGAG remaining in the explant at the end of culture. Cartilage matrix loss was reduced by each IGF fusion protein relative to the disease control at a level similar to wild-type IGF. New cartilage matrix synthesis (i.e. sulfated proteoglycan synthesis is measured by ^35S-Sulfate incorporation) during the final 48 hrs of cultures terminated at day 8 and day 12 is shown in FIGS. 5A and 5B, respectively. Cartilage matrix synthesis was increased compared to disease control by all fusion proteins (GF-Fus1, GF-Fus2, and GF-Fus3) and wild-type IGF when the fusion proteins were supplied in every medium change for the entire culture duration of 8 and 12 days (black bars). […]

Substance | cartilage matrix loss (% sGAG loss) | cartilage matrix loss (% sGAG loss), 4 days versus 12 days of treatment
GF-Fus6: IGF-1(LR3) fused to CNA344 CB domain | reduced | 
wtIGF: Wild-type IGF-1 (R&D systems 291-G1), control [reference compound] | reduced | 
GF-Fus1: IGF-1 variant polypeptide Long [R^3]-IGF-1, no fused binding domain; used 6x-Histidine-tagged as control [reference compound] | reduced | higher sGAG loss than 12 days of treatment
GF-Fus5: IGF-1(LR3) fused to CNA35 CB domain | reduced | 
GF-Fus3: C-terminal fusion IGF-1(LR3)-PRELP heparin binding domain | reduced | reduced sGAG loss by an equivalent amount

Source: patent US20170327556A1, “CARTILAGE-BINDING FUSION PROTEINS” (Merrimack Pharmaceuticals, Inc., priority 2013, published 2017)
